One assay has as its target T1, Human Cav2.2 channels (Homo sapiens, UniProt Q00975).
T1 construct: expressed in transfected cells
In words: Fluorescent assay for Cav2.2 channels using potassium depolarization to initiate channel opening (Assay Example 1). The assay is classed as cell-based. The conditions noted are these: Table 2. An excerpt:
Fluorescent Assay for Cav2.2 Channels Using Potassium Depolarization to Initiate Channel Opening
(§1) Human Cav2.2 channels were stably expressed in KEK293 cells along with alpha2-delta and beta subunits of voltage-gated calcium channels. An inwardly rectifying potassium channel (Kir2.3) was also expressed in these cells to allow more precise control of the cell membrane potential by extracellular potassium concentration. At low bath potassium concentration, the membrane potential is relatively negative, and is depolarized as the bath potassium concentration is raised. In this way, the bath potassium concentration can be used to regulate the voltage-dependent conformations of the channels. […]
(§2) Calcium influx through Cav2.2 channels is determined using a calcium-sensitive fluorescent dye in combination with a fluorescent plate reader. Fluorescent changes were measured with either a VIPR (Aurora Instruments) or FLIPR (Molecular Devices) plate reader.
(§3) • 1. […] Read cell plate on VIPR instrument, Excitation=480 nm, Emission=535 nm • 9. With VIPR continuously reading, add 0.1 ml (96-well plate) or 0.03 ml (384-well plate) of Depolarization Buffer, which is 2× the final assay concentration, to the cell plate.

Assay [1] addresses T2, N-type calcium channel (CaV2.2) (Homo sapiens, UniProt Q00975).
T2 construct: expressed in transfected cells
Briefly: N-type calcium channel antagonist activity in the aforementioned assays (Assay Examples 1-3: fluorescent, IonWorks HT, PatchXpress/manual patch clamp). In kind it is cell-based. The conditions noted are these: antagonizing the N-type calcium channel; which of Assay Examples 1-3 is not specified.
From the text: as §1, §2, §3
Block of N-type calcium channels is evaluated utilizing the IonWorks HT 384 well automated patch clamp electrophysiology device. […]
Background: In patch-clamp work, channel activity is measured electrically.

Molecules are shown by their SMILES.

By IC50 is commonly meant the concentration needed to halve the response being measured.

T1 sequence (Q00975 whole entry): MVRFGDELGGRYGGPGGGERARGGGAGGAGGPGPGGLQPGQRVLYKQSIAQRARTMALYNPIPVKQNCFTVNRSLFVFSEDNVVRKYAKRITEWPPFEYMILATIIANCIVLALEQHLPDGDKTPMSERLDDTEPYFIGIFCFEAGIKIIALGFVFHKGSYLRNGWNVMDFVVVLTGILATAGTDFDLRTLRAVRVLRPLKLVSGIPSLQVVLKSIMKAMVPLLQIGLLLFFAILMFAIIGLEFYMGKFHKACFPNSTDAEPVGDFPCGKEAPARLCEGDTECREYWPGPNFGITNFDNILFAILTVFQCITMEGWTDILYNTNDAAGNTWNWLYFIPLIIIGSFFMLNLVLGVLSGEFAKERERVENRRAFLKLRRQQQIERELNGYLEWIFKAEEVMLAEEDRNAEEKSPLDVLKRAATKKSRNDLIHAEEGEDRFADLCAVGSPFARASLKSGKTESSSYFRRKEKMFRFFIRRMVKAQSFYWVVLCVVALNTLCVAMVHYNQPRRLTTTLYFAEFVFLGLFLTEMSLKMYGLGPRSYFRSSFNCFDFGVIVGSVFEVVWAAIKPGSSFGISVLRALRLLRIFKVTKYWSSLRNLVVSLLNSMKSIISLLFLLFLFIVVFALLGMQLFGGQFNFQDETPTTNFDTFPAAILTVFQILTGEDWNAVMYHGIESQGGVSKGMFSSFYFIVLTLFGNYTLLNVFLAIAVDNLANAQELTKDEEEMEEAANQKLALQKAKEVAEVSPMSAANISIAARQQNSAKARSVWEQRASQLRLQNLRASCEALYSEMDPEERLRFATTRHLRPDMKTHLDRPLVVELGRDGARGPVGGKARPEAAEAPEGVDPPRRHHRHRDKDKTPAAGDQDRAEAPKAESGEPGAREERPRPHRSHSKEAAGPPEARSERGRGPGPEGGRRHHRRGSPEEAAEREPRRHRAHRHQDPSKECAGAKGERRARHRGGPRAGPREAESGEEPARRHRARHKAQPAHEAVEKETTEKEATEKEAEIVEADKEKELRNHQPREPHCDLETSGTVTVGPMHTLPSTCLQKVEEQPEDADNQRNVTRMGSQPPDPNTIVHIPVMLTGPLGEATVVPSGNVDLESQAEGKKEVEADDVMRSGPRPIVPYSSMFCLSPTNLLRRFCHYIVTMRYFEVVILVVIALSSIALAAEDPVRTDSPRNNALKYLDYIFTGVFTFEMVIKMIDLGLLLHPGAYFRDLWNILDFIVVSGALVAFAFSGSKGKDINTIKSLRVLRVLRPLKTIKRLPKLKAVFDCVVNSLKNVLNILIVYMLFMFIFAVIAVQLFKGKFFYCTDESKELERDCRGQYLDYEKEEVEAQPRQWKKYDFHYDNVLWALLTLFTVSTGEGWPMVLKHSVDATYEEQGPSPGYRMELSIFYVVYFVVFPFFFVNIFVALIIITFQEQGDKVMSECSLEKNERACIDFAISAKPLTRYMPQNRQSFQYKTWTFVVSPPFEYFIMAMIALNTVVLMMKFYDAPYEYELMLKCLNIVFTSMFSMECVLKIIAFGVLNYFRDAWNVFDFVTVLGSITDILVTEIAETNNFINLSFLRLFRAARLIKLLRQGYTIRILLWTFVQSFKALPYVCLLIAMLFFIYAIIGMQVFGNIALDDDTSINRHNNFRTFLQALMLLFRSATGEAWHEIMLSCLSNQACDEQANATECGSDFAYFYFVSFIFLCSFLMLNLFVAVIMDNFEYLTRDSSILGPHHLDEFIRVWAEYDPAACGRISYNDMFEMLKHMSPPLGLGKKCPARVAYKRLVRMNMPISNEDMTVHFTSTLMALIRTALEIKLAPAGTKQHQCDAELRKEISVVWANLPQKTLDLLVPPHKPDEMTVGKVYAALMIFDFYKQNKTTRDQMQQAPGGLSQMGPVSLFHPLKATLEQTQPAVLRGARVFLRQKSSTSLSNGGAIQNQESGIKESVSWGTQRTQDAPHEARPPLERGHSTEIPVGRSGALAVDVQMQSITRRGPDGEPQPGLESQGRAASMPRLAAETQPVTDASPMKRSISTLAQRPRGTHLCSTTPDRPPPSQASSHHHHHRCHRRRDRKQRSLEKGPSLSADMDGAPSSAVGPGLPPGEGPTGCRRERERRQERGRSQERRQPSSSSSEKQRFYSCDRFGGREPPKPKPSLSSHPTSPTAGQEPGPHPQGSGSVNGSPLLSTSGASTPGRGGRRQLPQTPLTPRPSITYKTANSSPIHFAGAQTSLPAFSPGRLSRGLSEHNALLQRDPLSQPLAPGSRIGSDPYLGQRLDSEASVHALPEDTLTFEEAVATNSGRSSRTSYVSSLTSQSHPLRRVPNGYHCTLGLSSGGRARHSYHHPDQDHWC
T1 sequence (P54289 25-946 partner limits assumed): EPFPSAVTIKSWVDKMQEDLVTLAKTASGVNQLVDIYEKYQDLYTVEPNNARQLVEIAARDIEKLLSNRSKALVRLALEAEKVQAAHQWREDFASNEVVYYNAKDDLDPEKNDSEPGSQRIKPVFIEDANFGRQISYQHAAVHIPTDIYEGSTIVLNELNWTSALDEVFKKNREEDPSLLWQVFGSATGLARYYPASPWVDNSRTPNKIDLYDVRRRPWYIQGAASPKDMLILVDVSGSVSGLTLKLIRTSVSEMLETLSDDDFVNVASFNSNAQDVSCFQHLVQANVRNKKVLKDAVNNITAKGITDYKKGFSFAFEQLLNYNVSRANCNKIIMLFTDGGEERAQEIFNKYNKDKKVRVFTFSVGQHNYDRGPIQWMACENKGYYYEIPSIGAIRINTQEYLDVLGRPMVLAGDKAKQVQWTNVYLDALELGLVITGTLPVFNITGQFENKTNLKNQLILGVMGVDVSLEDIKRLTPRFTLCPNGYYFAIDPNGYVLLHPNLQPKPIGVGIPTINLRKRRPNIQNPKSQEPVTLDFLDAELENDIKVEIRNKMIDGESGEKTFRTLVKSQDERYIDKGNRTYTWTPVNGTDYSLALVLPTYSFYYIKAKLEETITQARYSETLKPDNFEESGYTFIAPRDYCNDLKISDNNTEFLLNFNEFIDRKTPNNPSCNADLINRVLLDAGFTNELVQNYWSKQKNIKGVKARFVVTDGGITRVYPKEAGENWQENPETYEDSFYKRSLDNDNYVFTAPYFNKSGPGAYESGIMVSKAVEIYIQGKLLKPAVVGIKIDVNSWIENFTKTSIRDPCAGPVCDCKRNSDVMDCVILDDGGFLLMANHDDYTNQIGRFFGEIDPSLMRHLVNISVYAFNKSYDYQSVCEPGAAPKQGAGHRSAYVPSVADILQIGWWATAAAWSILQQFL
T1 sequence (P54289 947-1103 partner limits assumed): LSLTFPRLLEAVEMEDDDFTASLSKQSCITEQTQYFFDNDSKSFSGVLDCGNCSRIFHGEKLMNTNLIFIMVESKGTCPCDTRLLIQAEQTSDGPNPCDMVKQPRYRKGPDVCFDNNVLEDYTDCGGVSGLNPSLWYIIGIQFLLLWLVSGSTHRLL
T1 sequence (P54284 whole entry partner): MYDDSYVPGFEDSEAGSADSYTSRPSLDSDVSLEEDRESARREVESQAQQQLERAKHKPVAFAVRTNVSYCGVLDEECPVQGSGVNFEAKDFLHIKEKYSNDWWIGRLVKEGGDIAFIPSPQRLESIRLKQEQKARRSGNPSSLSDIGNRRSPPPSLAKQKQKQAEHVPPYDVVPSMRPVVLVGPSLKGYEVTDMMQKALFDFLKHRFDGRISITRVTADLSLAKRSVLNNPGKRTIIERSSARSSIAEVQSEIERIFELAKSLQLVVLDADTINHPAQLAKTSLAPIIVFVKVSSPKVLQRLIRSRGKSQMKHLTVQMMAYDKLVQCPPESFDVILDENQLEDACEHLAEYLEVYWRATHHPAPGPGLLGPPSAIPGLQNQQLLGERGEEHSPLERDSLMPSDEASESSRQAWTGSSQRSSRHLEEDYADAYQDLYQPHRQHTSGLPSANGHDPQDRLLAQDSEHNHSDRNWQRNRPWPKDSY
T2 sequence (Q00975 whole entry): as the sequence (Q00975 whole entry) above
T2 sequence (P54289 25-946 partner limits assumed): as the sequence (P54289 25-946 partner limits assumed) above
T2 sequence (P54289 947-1103 partner limits assumed): as the sequence (P54289 947-1103 partner limits assumed) above
T2 sequence (P54284 whole entry partner): as the sequence (P54284 whole entry partner) above

For `CC(C)(C1CN(c2ccc(C(F)(F)F)cc2)C(=O)O1)S(=O)(=O)c1cccc(C(F)(F)F)c1` (stereo not drawn), the IC50 at Human Cav2.2 channels was determined as 745 nM. As to `CC(C)([C@H]1CN(c2ccc(C(F)(F)F)cn2)C(=O)CO1)S(=O)(=O)c1cccc(C(F)(F)F)c1` [Example 6, (6R)-6-(1-methyl-1-{[3-(trifluoromethyl)phenyl]sulfonyl}ethyl)-4-[5-(trifluoromethyl)pyridin-2-yl]morpholin-3-one], the IC50 in assay [1] was found to be 1520 nM. `CC(C)([C@H]1CN(c2ccc(C(F)(F)F)cn2)C(=O)CO1)S(=O)(=O)c1cccc(C(F)(F)F)c1` [drawing 26]: the half-inhibitory concentration (IC50) at Human Cav2.2 channels is 1510 nM.

These data come from patent US20110172223A1, “Substituted Aryl Sulfone Derivatives as Calcium Channel Blockers” (priority 2008, published 2011).
